According to US10016515B2, “DMA, a bis-benzimidazole, confers radioprotection to the intestine via Akt/NFκB dual pathway activation” (Jawaharlal Nehru University, priority 2016, dated 2018):

Experiments:
[1] = tested on: HEK293 cells; experiment: Cell-cycle analysis; format: cell-based, human
Experimental: The cell cycle analysis of Akt depleted HEK293 cells were done at 0, 1, 3, 6, 12, 18 and 24 h, washed twice with ice-cold PBS, and fixed in 70% ethanol. Cell pellets were stored at 4° C. for 24 h, and stained with 0.5 mL of propidium iodide (0.1% in 0.6% Triton X-100 in PBS) and 0.5 mL of RNase (2 mg/mL) for 30 min in dark. Samples were then analysed on a FACS Calibur flow-cytometer (Becton Dickinson).

[2] = tested on: melanoma bearing Balb/c mice; experiment: Melanoma tumor bearing mice, tumor volume and survival after TBI; format: in vivo, mouse
Experimental: EAT and B16F10 melanoma cell line were harvested and 10×10^6 and 0.8×10^6 cells respectively were injected subcutaneously in the Balb/c mice (n=24) on the right thigh. When tumors reached 0.5 cm^3 in volume, animals were randomized and divided into 4 different groups. The first test group was treated with 50 mg/kg, i.v. DMA, second test group subjected to 8 Gy TBI. Third group received 50 mg/kg, i.v. DMA and 8 Gy TBI both. The control group was similarly administered normal saline (0.1 ml, i.v.). On every alternate days, tumor-bearing thigh of each animal was shaved, and the longest (1) and shortest diameter (b) of the tumors along with height (h) were measured with the help of a vernier calliper. Tumor weight of each animal was calculated using the formula l*b*h/2.

[3] = Plasma pharmacokinetics of DMA; format: in vivo, mouse
Experimental: Oral and intravenous pharmacokinetics of DMA was performed at a dose of 100 and 50 mg/kg bw, respectively. Control mice were administered equal volume of sterile water. Blood samples were collected by cardiac puncture at 1, 2, 4, 6, 16, and 24 h after oral and intravenous administration of DMA. Plasma was spiked with Hoechst 33342 as internal standard. Plasma proteins were precipitated by adding 180 μl acetonitrile and the samples were centrifuged at 14000 rpm for 10 min at 4° C. Clear supernatant […] was taken and […] distilled water was added to get a ˜35% acetonitrile solution. The samples were injected onto HPLC-MS/MS system.
A standard DMA calibration from 1-1000 ng/ml with internal standard (20 ng/ml) was quantified. Sample analysis was performed on positive ionization mode LC-MS/MS with multiple reactions monitoring (MRM, m/z Q1/Q3) of DMA (m/z 235.1/412.0, retention time (RT) 5.3 min) and internal standard (m/z 227.1/396.0, RT 6.5 min) (Agilent 6410 series). A gradient method was employed to analyze the plasma samples using mobile phase A (0.1% formic acid in water) and mobile phase B (methanol). The B % was set as 30 (0 min), 90 (10-14 min), 30 (14-24 min) with flow rate of 0.3 ml/min. An injection volume of 10 μl was used for analysis.
Peak tissue concentration (Cmax) of DMA and time to reach the Cmax (tmax) were read directly from the raw data by visual examination of mean tissue concentration-time profile. The tissue concentration-time data following oral dose were subjected to one-, two- and three-compartmental models using WinNonlin program (version 6.3; Certara Inc, Missouri, USA) to calculate the pharmacokinetic parameters. The pharmacokinetic models were compared according to maximal correlation between observed and predicted concentration, minimal sum of squared residuals, Akaike Information Criterion (AIC) and Schwarz Bayesian Criterion (SBC). However, the tissue concentration-time data following intravenous administration were subjected to non-compartmental approach.

[4] = tested on: Akt/NFκB pathway in Balb/c mice intestine tissue; experiment: Immunoblot analysis and Akt kinase assay in intestine tissue; format: in vivo, mouse
Experimental: HEK293, MRC5 and A549 cells were treated as indicated earlier. The cell pellet was resuspended in RIPA buffer and allowed to swell on ice for 30 min. Balb/c intestine tissue and tumor tissues were homogenized in RIPA buffer. Protein concentration was determined using Bradford's Assay (Bangalore Genei). Western blot was performed using standard protocols with primary antibodies against Akt, pAkt (Ser-473), […], mTOR, p70, Bad, PTEN, IKKα/β, p IKKα/β, p53, Bcl2, GAPDH, and NFκB (p65) (Cell Signalling) and horseradish peroxidase-conjugated mouse or rabbit secondary antibody (Abcam). Signals were detected using enhanced chemiluminescence (ECL system, Pierce) on X-ray film.
Akt kinase activity was determined using Akt Kinase Assay Kit (Nonradioactive) (Cell Signaling Technology, Cat. #9840) following the manufacturer's instructions.

[5] = tested on: A549 cells; experiment: Growth kinetics with DMA prior to 6 Gy radiation; format: cell-based, human; conditions: for % growth compared to control: A549, 50 μM DMA prior to 6 Gy; for % radioprotection: A549, 6 Gy
Experimental: FIG. 2. Radioprotection by DMA Against Radiation in MRC5 and A549 Cell Lines. A) Proliferation of viable MRC5. B) Graphical representation of % survival of MRC5 cell line at 24 and 48 h C) A549 treated with 50 μM DMA in presence and absence of 6 Gy radiation and D) Graphical representation of % survival of A549 cell line at 24 and 48 h. Cell numbers were determined by haemocytometer at 0, 6, 12, 24 and 48 h. Values are mean (±SD) of three independent experiments. *p<0.05 compared to the control group.
2 h subsequent to DMA treatment, cells was exposed to γ-irradiation (1.3 Gy/min dose rate) using Co-60 source (Institute of Nuclear Medicine and Allied Sciences, Delhi, India). Following irradiation, cells were incubated for 4 h in a 5% CO2 humidified incubator and processed for further sample preparation.

[6] = tested on: Balb/c mice intestine tissue; experiment: Gene expression at mRNA level by RT-PCR; format: in vivo, mouse
Experimental: The cDNA generated from total RNA was amplified using 1 μl of the reaction products in 10 μl with respective primers for 45 cycles following standard RT-PCR cycle by SYBR green dye. Transcript levels were calculated according to the 2^−ΔΔCt method, normalized to the expression of GAPDH, and expressed as fold change compared with control.

[7] = Balb/c, mouse, plasma, 100 mg/kg oral
[8] = DMA pre-treated to radiation group

With `COc1ccc(-c2nc3cc(-c4nc5cc(N6CCN(C)CC6)ccc5[nH]4)ccc3[nH]2)cc1OC` [DMA, 5-(4-methylpiperazin-1-yl)-2-[2′-(3,4-dimethoxyphenyl)-5′-benzimidazolyl]benzimidazole] as the compound, how does the G2 check point ([1]; HEK293, DMA 50 μM alone) read?
Its G2 check point is “no significant G2 check point”.

What about the G2-M progression ([1]; HEK293, DMA+Radiation (5Gy), 18 h) of the same compound?
The G2-M progression was “significant G2-M delay”.

And the “Survival of melanoma bearing Balb/c mice” value ([2]; 50 mg/kg i.v. 2 h before 8Gy TBI)?
The value was 50%.

And the “Radioprotection of tumor tissues” value ([2]; 50 mg/kg, 2 h before irradiation, melanoma model)?
Its value is “less radioprotection”.

What about the “Maximum concentration observed in plasma” value ([3]; 50 mg/kg i.v.) of the same compound?
The value was 4291.95 ng/mL.

And the “Volume of distribution (Vss)” value ([3]; 50 mg/kg i.v.)?
Its value is “larger than the total blood volume of mouse”.

And the Plasma peak concentration ([3]; 100 mg/kg oral)?
The Plasma peak concentration was 445.8 ng/mL.

What about the “Time to decline to basal level in plasma” value ([3]; 100 mg/kg oral) of the same compound?
The value was 16 h.

And the half-life ([3]; Balb/c, mouse, plasma, iv, 50 mg/kg i.v.)?
The half-life was 2.65 h.

And the Tmax [3, 7]?
Its Tmax is 1.5 h.

And the half-life [3, 7]?
Its half-life is 3.5 h.

What about the AUC ([3]; Balb/c, mouse, plasma, 100 mg/kg oral, read-out: Area under curve (AUC), plasma) of the same compound?
The AUC was 669 ng·h/mL.

What about the clearance ([3]; Balb/c, plasma, intravenous, 50 mg/kg, mouse, hepatic blood flow 5.4 L/h/kg, read-out: Systemic clearance (converted)) of the same compound?
The clearance was 195 mL/min/kg.

What about the Clearance from plasma ([3]; oral and i.v. routes) of the same compound?
The Clearance from plasma was “rapid clearance”.

What about the “Phosphorylated Akt, GSK3β and IKKα/β” value ([4]; DMA treated intestine tissue prior to irradiation) of the same compound?
The value was “higher level”.

And the “Kinase activity of Akt” value ([4]; DMA+Radiation vs control and radiation, intestine)?
Its value is “higher kinase activity”.

And the “NFκB p65 expression” value ([4]; DMA+Radiation, intestine)?
Its value is “higher expression”.

What about the “% growth compared to control” value ([5]; 24 h) of the same compound?
The value was 73%.

What about the “% growth compared to control” value ([5]; 48 h) of the same compound?
The value was 68%.

What about the “% radioprotection” value ([5]; 24 h) of the same compound?
The value was 11.1%.

And the “% radioprotection” value ([5]; 48 h)?
The value was 15%.

And the “Akt mRNA expression” value ([6]; DMA 50 mg/kg i.v. + 8Gy TBI vs control)?
Its value is “higher expression”.

And the “Bax, Bcl-2 and p21 mRNA expression level” value ([6]; DMA by itself)?
Its value is “did not increase”.

And the “Gadd45α mRNA expression” value ([6]; DMA by itself)?
The value was “significantly increased”.

And the Bax gene expression [6, 8]?
The Bax gene expression was “no significant downregulation”.

What about the “Bcl-2 mRNA level” value [6, 8] of the same compound?
Its value is “insignificant increase”.

And the “p21 mRNA expression” value ([6]; DMA pretreatment 50 mg/kg i.v. to radiation vs radiation)?
The value was “significantly downregulated”.

What about the “Gadd45α mRNA expression” value ([6]; DMA pretreatment to radiation) of the same compound?
Its value is “augmented”.
